{"source": "ChEMBL document CHEMBL5465560", "about": "“Selectivity Literature for EUbOPEN Chemogenomic Library” (2024)", "key": {"[1]": {"target": "T1, Bromodomain and PHD finger-containing protein 3 (Homo sapiens) (UniProt Q9ULD4)", "T1 sequence (whole entry)": "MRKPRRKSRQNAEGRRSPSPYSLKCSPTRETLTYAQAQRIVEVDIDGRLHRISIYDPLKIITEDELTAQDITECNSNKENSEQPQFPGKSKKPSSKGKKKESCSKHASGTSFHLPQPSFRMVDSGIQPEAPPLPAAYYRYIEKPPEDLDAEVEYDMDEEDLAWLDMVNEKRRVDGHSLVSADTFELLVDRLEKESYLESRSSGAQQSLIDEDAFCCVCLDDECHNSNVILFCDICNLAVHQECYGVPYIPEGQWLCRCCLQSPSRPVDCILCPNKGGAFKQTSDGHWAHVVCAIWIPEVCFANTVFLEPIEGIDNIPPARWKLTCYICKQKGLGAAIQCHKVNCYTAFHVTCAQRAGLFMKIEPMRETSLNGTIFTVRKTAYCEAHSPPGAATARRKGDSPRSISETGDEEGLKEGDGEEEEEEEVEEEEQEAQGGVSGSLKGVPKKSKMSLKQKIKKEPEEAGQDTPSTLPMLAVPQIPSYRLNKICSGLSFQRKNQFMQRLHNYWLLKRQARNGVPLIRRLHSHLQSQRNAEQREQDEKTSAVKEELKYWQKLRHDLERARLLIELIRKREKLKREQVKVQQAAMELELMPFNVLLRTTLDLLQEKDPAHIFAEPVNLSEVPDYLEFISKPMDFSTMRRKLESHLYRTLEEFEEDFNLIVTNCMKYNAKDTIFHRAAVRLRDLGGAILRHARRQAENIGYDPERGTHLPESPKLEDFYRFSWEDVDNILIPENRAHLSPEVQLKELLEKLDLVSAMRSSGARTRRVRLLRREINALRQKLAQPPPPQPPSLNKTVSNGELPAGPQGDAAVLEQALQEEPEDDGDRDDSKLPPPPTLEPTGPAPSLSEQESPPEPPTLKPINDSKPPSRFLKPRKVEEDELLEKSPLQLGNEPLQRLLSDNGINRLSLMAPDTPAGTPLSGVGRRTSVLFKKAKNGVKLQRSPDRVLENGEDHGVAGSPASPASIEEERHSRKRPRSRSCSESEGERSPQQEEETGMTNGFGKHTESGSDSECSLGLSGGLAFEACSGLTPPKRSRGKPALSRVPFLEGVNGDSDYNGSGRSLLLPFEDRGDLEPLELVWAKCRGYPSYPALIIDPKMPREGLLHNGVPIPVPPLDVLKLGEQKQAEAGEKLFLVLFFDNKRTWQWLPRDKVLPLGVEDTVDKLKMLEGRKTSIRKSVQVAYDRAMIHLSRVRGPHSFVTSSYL", "experiment": "Selectivity interaction (Human bromodomain panel (DSF assay)) EUB0000233b BRPF3"}, "[2]": {"target": "T2, Serine/threonine-protein kinase ULK3 (Homo sapiens) (UniProt Q6PHR2)", "T2 sequence (whole entry)": "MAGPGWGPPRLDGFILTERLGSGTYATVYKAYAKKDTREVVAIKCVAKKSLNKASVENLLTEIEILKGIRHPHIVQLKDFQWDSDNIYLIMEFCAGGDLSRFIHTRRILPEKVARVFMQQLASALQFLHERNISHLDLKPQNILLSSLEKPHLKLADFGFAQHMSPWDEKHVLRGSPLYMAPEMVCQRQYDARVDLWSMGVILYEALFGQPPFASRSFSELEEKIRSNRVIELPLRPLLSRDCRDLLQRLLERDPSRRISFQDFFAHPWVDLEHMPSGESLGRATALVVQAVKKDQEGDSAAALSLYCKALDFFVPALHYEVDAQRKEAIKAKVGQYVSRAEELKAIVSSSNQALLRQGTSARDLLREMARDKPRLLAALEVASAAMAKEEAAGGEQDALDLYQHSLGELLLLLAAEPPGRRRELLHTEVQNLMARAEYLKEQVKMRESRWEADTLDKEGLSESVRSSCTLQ", "experiment": "Selectivity interaction (LanthaScreen Eu Kinase Binding Assay) EUB0001632a ULK3", "conditions": "at 10 µM"}, "[3]": {"target": "T3, Activin receptor type-1B (Homo sapiens) (UniProt P36896)", "T3 sequence (whole entry)": "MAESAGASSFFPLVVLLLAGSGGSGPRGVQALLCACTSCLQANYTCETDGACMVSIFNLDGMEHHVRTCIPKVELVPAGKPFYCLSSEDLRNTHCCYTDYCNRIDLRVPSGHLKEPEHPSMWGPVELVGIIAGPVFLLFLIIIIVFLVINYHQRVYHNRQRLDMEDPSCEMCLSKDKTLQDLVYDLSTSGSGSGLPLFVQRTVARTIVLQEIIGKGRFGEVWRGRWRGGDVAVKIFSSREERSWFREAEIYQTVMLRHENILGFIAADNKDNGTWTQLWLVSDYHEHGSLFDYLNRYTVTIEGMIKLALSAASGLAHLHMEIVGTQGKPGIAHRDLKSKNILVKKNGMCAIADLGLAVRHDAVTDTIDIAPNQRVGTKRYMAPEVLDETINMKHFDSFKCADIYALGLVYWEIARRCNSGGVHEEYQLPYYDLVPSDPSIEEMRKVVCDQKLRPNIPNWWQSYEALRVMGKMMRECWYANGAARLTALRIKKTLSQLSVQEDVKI", "experiment": "Selectivity interaction (KinomeScan (DiscoverX)) EUB0000666a ACVR1B", "conditions": "at 10 µM"}, "[4]": {"target": "Prostacyclin receptor (Homo sapiens) (UniProt P43119)", "sequence (P43119 whole entry)": "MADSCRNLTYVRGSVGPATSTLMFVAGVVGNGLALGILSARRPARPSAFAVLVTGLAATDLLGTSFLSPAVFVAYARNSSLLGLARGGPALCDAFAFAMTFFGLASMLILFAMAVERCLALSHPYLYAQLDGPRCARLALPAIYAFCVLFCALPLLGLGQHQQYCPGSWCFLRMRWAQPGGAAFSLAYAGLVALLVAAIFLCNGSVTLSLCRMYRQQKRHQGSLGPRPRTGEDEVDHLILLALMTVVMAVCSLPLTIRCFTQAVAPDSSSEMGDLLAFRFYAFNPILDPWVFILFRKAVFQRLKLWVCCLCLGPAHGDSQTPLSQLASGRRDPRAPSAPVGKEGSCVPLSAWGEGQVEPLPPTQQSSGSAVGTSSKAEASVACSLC", "experiment": "Selectivity interaction (Eurofins CEREP Diversity Profile (receptors and ion channels)) EUB0000279b PTGIR", "conditions": "at 10 µM"}, "[5]": {"target": "Rho-associated protein kinase 2 (Homo sapiens, UniProt O75116)", "sequence (O75116 whole entry, looked up)": "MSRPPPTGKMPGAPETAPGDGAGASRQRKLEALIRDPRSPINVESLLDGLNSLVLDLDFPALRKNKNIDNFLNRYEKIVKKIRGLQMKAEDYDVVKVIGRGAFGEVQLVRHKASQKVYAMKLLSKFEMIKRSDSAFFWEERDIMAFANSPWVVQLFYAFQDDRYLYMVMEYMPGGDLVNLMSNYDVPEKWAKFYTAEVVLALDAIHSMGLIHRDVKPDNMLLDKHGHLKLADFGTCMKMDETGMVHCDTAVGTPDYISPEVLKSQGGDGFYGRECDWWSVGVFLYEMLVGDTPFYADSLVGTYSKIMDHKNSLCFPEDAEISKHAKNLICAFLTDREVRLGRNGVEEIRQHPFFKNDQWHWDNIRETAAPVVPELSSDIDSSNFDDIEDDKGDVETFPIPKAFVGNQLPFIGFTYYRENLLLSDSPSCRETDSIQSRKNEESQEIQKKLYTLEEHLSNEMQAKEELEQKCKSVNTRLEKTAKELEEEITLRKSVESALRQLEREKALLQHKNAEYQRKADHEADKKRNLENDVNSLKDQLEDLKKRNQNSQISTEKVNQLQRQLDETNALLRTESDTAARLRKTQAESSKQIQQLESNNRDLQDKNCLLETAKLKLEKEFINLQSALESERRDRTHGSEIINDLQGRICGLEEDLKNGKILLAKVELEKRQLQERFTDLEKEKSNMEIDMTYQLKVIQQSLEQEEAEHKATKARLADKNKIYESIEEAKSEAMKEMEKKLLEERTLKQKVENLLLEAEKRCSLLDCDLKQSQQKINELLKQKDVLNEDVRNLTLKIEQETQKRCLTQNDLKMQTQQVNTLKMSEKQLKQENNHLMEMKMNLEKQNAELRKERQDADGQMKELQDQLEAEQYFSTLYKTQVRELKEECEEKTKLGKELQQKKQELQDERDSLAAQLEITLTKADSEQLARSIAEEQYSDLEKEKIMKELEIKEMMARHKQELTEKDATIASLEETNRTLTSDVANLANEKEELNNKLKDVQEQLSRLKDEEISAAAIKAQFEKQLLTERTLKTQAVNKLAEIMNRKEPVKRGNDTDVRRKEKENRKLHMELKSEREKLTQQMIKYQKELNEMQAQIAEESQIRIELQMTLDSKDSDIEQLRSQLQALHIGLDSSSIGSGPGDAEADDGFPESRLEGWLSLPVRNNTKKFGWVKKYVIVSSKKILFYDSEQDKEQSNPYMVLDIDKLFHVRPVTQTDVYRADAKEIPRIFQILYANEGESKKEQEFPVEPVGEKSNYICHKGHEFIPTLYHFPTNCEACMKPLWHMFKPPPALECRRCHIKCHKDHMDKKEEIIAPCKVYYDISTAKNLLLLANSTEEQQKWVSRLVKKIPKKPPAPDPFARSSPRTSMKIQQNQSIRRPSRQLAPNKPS", "experiment": "Selectivity interaction (Millipore kinase profiler) EUB0000124b ROCK2", "conditions": "at 10 µM"}, "[6]": {"target": "Glutamate receptor ionotropic, NMDA 1 (Homo sapiens) (UniProt Q05586)", "experiment": "Selectivity interaction (Panel of kinases, GPCRs, ion channels and transporters (enzymatic assay)) EUB0000223bCl GRIN1"}, "[7]": {"target": "Protein kinase C theta type (Homo sapiens, UniProt Q04759)", "sequence (Q04759 whole entry, looked up)": "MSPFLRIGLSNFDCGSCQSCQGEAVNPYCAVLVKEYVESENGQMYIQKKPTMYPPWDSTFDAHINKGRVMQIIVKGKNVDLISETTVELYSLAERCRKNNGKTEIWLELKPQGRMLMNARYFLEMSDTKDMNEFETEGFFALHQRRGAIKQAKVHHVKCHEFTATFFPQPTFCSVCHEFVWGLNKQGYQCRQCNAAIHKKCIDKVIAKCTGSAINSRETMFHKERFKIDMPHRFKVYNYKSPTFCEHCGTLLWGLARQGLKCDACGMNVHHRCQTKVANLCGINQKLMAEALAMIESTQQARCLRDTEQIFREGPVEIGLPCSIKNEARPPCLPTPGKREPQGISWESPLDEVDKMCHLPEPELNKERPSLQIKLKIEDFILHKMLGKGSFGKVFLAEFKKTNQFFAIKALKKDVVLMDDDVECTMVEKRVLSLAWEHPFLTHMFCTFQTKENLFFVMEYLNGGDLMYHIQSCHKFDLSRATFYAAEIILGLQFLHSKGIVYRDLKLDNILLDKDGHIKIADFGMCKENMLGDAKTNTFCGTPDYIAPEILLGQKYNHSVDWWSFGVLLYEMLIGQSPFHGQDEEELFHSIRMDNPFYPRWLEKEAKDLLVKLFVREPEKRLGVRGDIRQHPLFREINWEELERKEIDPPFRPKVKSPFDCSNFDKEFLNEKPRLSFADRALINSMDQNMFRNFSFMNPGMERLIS", "experiment": "Selectivity interaction (KinomeScan (DiscoverX)) EUB0000607a PRKCQ", "conditions": "at 10 µM"}, "[8]": {"target": "Mitogen-activated protein kinase 10 (Homo sapiens, UniProt P53779)", "sequence (P53779 whole entry)": "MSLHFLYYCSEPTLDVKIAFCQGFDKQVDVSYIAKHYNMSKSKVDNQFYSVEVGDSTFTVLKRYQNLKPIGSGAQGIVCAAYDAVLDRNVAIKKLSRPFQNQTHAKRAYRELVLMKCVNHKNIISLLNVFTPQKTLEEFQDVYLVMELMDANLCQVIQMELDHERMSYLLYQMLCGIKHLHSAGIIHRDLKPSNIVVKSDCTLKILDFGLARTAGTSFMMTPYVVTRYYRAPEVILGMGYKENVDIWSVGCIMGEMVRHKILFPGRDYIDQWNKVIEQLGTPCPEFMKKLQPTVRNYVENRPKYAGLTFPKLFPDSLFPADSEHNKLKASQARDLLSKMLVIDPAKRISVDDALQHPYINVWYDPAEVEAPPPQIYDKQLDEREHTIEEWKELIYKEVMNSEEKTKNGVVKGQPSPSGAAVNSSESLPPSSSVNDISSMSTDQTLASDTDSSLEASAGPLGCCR", "experiment": "Selectivity interaction (Kinase panel (DSF assay)) EUB0001558a MAPK10"}}, "data": [{"smiles": "CN(C)CCCOc1ccc(-c2cc(NCCCn3cccn3)nc(S(C)(=O)=O)n2)cc1", "values": [{"measurement": "dTM", "setting": "[1]", "value": "< 2", "unit": "K"}]}, {"smiles": "Cn1cc(-n2cnc3c(NCc4nc5cc(Cl)c(Cl)cc5[nH]4)nc(N4CCOCC4)nc32)cn1", "values": [{"measurement": "% of inhibition", "setting": "[2]", "value": -290, "unit": "%"}]}, {"smiles": "O=C(NOC[C@H](O)CO)c1ccc(F)c(F)c1Nc1ccc(I)cc1F", "values": [{"measurement": "% of control", "setting": "[3]", "value": 100, "unit": "%"}]}, {"smiles": "CC(=O)c1cc(-c2ccccc2OCC2CC2)c2ncccn12", "values": [{"measurement": "% of control", "setting": "[4]", "value": 108, "unit": "%"}]}, {"smiles": "CC(=O)Nc1cccc(-n2c(=O)n(C3CC3)c(=O)c3c(Nc4ccc(I)cc4F)n(C)c(=O)c(C)c32)c1", "values": [{"measurement": "% of control", "setting": "[5]", "value": 99, "unit": "%"}]}, {"smiles": "COc1cc(C(=O)N2CC[C@@H](O)[C@@H](N)C2)cc2nc(-c3cc4ccccc4n3CC3CC3)n(C)c12", "values": [{"measurement": "pXC50", "setting": "[6]", "value": 4.8, "unit": "M"}]}, {"smiles": "CNC(=O)Nc1ccc(-c2nc(N3CC4CCC(C3)O4)c3cnn(C4CCC5(CC4)OCCO5)c3n2)cc1", "values": [{"measurement": "% of control", "setting": "[7]", "value": 100, "unit": "%"}]}, {"smiles": "CC(C)(O)[C@H](F)CN1Cc2cc(NC(=O)c3cnn4cccnc34)c(N3CCOCC3)cc2C1=O", "values": [{"measurement": "dTM", "setting": "[8]", "value": 1.5, "unit": "K"}]}]}
